Assay results from patent publication US20040063165A1, “Light-activated in vitro assay process for luciferase bioluminescence” (priority 2003, published 2004).

How the values were obtained:
[1] = test system: Firefly luciferase enzyme; settings: 1 millisecond UV pulse, Xenon lamp; pulse power varied 40, 60, 80 mJ per pulse; D-Luciferin the limiting factor
Description: In this experiment, caged D-Luciferin was utilized to control the reaction.
Functional D-Luciferin was delivered to the reaction from caged D-Luciferin upon exposure of the reaction components to a pulse of UV light with suitable power.
Firefly luciferase enzyme dissolved in Tricine buffer pH 7.8 (50 mM N-Tris (hydroxymethyl) methylglycine) adjusted with NaOH, supplied by Kikkoman Catalog LUC T
5 mM Mg citrate in PBS, pH 7.4-
100 mM ATP solution, pH 7.5 (Amersham Pharmacia, Catalog No. 272056).
In a total reaction volume of 25 μL, the following components were added as solutions to a suitable cell:
10 μL of luciferase solution
5 μL of 5 mM Mg citrate in PBS
5 μL of 1 mM ATP solution
5 μL caged D-Luciferin solution.
The cell with the components was exposed to a pulse of UV (1 millisecond_pulse by a Xenon Lamp, Rapp Optoelectronic). The power of the UV pulse was varied (40, 60, 80 mJ per pulse).

[2] = test system: luciferase; experiment: UV uncaging of caged ATP to trigger luciferase chemiluminescent reaction (Example 1); type: biochemical; settings: 1 millisecond UV pulse, Xenon lamp; pulse power varied 40, 60, 80 mJ per pulse; ATP the limiting factor
Description: In this experiment, caged ATP was utilized to control the reaction. […] Reagents:
Lyophilized luciferase/lyophilized D-Luciferin were dissolved in Tricine buffer [50 mM N-tris(hydroxymethyl)methylglycine, adjusted with NaOH to pH 7.8, Lot 1418] both supplied by Kikkoman as assay kit, CheckLite HS Plus, Catalog # 60342).
5 mM Mg citrate in phosphate buffered saline (PBS, pH 7.4)
Caged ATP (p-(1-(4,5-dimethoxy-2-nitrophenyl)ether, disodium salt-caged adenosine-5-triphosphate) in methanol, 5 mg in 300 μL (Molecular probes, Catalog # A-1049).
In a total reaction volume of 20 μL, the following were mixed in a suitable reaction cell
10 μL of Luciferase/D-Luciferin solution mix,
5 μL of 5 mM Mg Citrate in PBS
5 μL of caged ATP solution.

Row | Molecule | amount of light released from the reaction [1] | amount of light released from the reaction [2]
1 | 1-(4,5-dimethoxy-2-nitrophenyl)ethyl ester—caged D-luciferin | increased with the increase of the UV pulse power | 
2 | COc1cc(C(C)OP(=O)([O-])OP(=O)(O)OP(=O)([O-])OCC2OC(n3cnc4c(N)ncnc43)C(O)C2O)c([N+](=O)[O-])cc1OC.[Na+].[Na+] (centres unmarked) [caged ATP, p-(1-(4,5-dimethoxy-2-nitrophenyl)ether, disodium salt-cagedadenosine-5-triphosphate)] |  | increased with the increase of the UV pulse power
